Assay results from patent US20110189266A1, “CORTICOSTEROID MICROVESICLES FOR TREATMENT OF CARDIOVASCULAR DISEASES” (MOUNT SINAI SCHOOL OF MEDICINE OF NEW YORK UNIVERSITY, priority 2008, published 2011).

Columns and labels:
neo-intimal formation = conditions: prednisone- and Taxus stent-treated animals; Ribichini et al 2007; cited from earlier work
[1] = tested on: atherosclerotic plaques of the abdominal aorta; assay: 18F-FDG PET/CT of the abdominal aorta (mean SUV), rabbit model of atherosclerosis; format: in vivo, New Zealand White (NZW) rabbits; conditions: single i.v. injection 15 mg/kg
Experimental: Seventeen male New Zealand White (NZW) rabbits (mean age 7 months; mean weight 3.5±0.2 kg; Covance) were included in this study. Aortic atherosclerotic plaques were induced in 15 NZW rabbits, through a well established model^18, by a combination of 7 months of high cholesterol diet (4.7% palm oil and 0.3% cholesterol-enriched diet; Research Diet Inc.) and a repeated balloon injury of the aorta (two weeks and six weeks after starting the high cholesterol diet). Aortic injury was performed from the aortic arch to the iliac bifurcation with a 4F Fogarty embolectomy catheter introduced through the femoral artery. […]
PET/CT images were analyzed on a Xeleris workstation. […] SUV was calculated by dividing the tissue concentration (kBq/mL) by the injected dose per gram of body weight (kBq/g).
The scans allow the quantification of the standard uptake value (SUV) of ^18F-FDG in the abdominal aorta. The SUV is the decay-corrected tissue concentration of FDG (in kBq/g), corrected for injected FDG dose and body weight (in kBq/g), and is a well-recognized method for quantification of FDG PET data. Prior to start of treatment, the aortas of six atherosclerotic rabbits and two non-atherosclerotic rabbits were measured to establish mean SUV levels of atherosclerotic and non-atherosclerotic rabbits.

[2] = tested on: atherosclerotic plaque permeability, aortic wall; assay: Dynamic contrast enhanced MRI (DCE-MRI) to quantify changes in plaque permeability; format: in vivo, New Zealand White (NZW) rabbits; conditions: before vs two days after administration

| Compound | neo-intimal formation (neo-intimal formation) | SUV differences between pre, and two and seven days post treatment [1] | SUV change one week post-treatment ([1]; one week post-treatment vs pre, p=0.006 (liposomal), p=0.40 (free)) | change of DCE-MRI area under the curve (AUC) of the aortic wall [2] |
| --- | --- | --- | --- | --- |
| C[C@]12C=CC(=O)C=C1CC[C@@H]1[C@@H]2C(=O)C[C@@]2(C)[C@H]1CC[C@]2(O)C(=O)CO [prednisone] | reduced neo-intimal formation | – | – | – |
| prednisolone phosphate disodium salt [free circulating glucocorticoids] | – | no significant SUV differences | no SUV reduction | not |
